According to paper PMC8451604, “Rational formulation engineering of fraxinellone utilizing 6-O-α-D-maltosyl-β-cyclodextrin for enhanced oral bioavailability and hepatic fibrosis therapy” (Drug Delivery, 2021):
In brackets after ≈: the same amount, converted by molar mass. Entries after “also recorded” stand apart in the source; their conditions may differ.

How the values were obtained:
[1] = Blood biochemical assay (hematological parameters); type: in vivo, Kunming male mice; settings: mice, 7 weeks; for PLT (platelet) / WBC (white blood cell): in 10^9/L (unit assumed); for RBC (red blood cell): in 10^12/L (unit assumed); for HCT (haematocrit) / RDW-CV (red cell volume distribution width): in % (unit assumed); for MCV (mean cell volume) / MPV (meanplateletvolume) / RDW-SD: in fL (unit assumed); for HGB (hemoglobin): in g/L (unit assumed); for MCH (mean corpuscular hemoglobin): in pg (unit assumed)
Description: The Kunming male mice (weight of 28–30 g) were divided into 10 groups (n = 10): normal group, Frax or G2-β-CD-Frax treatment groups with a Frax dose of 5, 10, and 20 mg/kg, respectively, G2-β-CD solution treatment (equivalent to 20 mg/kg of G2-β-CD-Frax) group. Drug treatment continued every day for 7 weeks. One day after the last administration, blood and major tissues (heart, liver, spleen, lung, and kidney) were obtained from the blank group and drug-treated groups (20 mg/kg) for histological examination. The whole blood was directly analyzed using an automatic blood cell analyzer to obtain hematological parameters. The collected tissues were subjected to histological examination.

[2] = In vitro drug release by dialysis method; type: physicochemical; settings: within 6 h, pH 1.2, 6.8 and 7.4 media, 37 °C
Description: In vitro drug release performance was studied by a dialysis method in phosphate buffer (pH 6.8 and 7.4) and 0.1 M HCl (pH 1.2) at 37 °C. Briefly, a certain volume of Frax suspension, SBE-β-CD-Frax, G2-β-CD-Frax, and HP-β-CD-Frax dispersion solution were enclosed in 1500 Da dialysis bags, respectively. The dialysis bag was then transferred and immersed into the release medium under gentle shaking. After 0.5, 1, 1.5, 2, 2.5, 3.5, 4, and 6 h, 1 mL of the release media was aspirated and supplemented with 1 mL of fresh media. The Frax concentration in the samples was analyzed by HPLC. The cumulative drug release (%) was calculated with the following Equation (2) (Chuang et al., [2018]): (2) Drug release (%)=Ve∑1n−1Ci+V0Cn/mFrax where V0 (mL) is the release media volume, Cn (μg/mL) is the drug concentration in the sample, Ve (mL) is the replaced medium volume, and mFrax (mg) is the amount of drug in the sample.

[3] = Stability of Frax in artificial gastrointestinal fluid (SGF/SIF); type: physicochemical; settings: SGF/SIF with or without enzymes, 37 °C
Description: The stability studies were performed according to the previous study (Zhang et al., [2015]). Briefly, 20 μL of DMSO solution of Frax (10 mg/mL) was added to 10 mL of simulated gastric fluid (SGF) or simulated intestinal fluid (SIF) containing pepsin/without pepsin. Afterward, the samples were placed in a shaker (100 rpm, 37 °C). At predetermined timepoints, a suitable amount of samples were withdrawn and mixed with methanol. After a thorough vortex, the mixture was centrifuged and the resulted supernatant was subjected to HPLC to determine Frax content.

[4] = Octanol/water partition coefficient (Log P) measurement; type: physicochemical; settings: octanol/PBS (mutually saturated, equal volumes); pH 1.2, 4.5 and 6.8, 37 °C
Description: The mixtures were placed in an air bath shaking at 100 rpm at 37 °C for 24 h. The samples were then centrifuged (12,000 rpm, 10 min) for oil/water phase separation. The drug concentration in these two phases was analyzed by HPLC, respectively.

[5] = Solubility of Frax in various solubilizers (50% solution); type: physicochemical; settings: 37 °C
Description: Excess Frax was added into Solutol HS 15, Tween 80, PEG 400, Transcutol P, β-CD, SBE-β-CD, HP-β-CD, and G2-β-CD solution (50%), respectively. The samples were vortexed followed by incubation in a shaker (120 rpm, 37 °C) for 72 h. After the process, the samples were centrifuged to separate the supernatant containing dissolved Frax. After suitable dilution and filtration, Frax concentration in the supernatant was analyzed by the HPLC method.

- MCHC (mean corpuscular hemoglobin concentration) ([1]; 5 mg/kg): 342.63 ± 10.38
- PDW (platelet distribution width) ([1]; 5 mg/kg): 14.84 ± 0.12
- PLT (platelet) ([1]; 5 mg/kg): 1188.13 ± 317.24
- WBC (white blood cell) ([1]; 5 mg/kg): 7.78 ± 3.91
- RBC (red blood cell) ([1]; 5 mg/kg): 9.21 ± 0.75
- HCT (haematocrit) ([1]; 5 mg/kg): 39.54 ± 2.28
- RDW-CV (red cell volume distribution width) ([1]; 5 mg/kg): 16.24 ± 1.32
- MCV (mean cell volume) ([1]; 5 mg/kg): 43.01 ± 2.17
- MPV (meanplateletvolume) ([1]; 5 mg/kg): 6.51 ± 0.32
- RDW-SD ([1]; 5 mg/kg): 29.88 ± 3.52
- HGB (hemoglobin) ([1]; 5 mg/kg): 135.50 ± 10.76
- MCH (mean corpuscular hemoglobin) ([1]; 5 mg/kg): 14.73 ± 0.49
- MCHC (mean corpuscular hemoglobin concentration) ([1]; 10 mg/kg): 344.43 ± 9.64
- PDW (platelet distribution width) ([1]; 10 mg/kg): 14.91 ± 0.12
- PLT (platelet) ([1]; 10 mg/kg): 1012.71 ± 281.88
- WBC (white blood cell) ([1]; 10 mg/kg): 6.46 ± 2.46
- RBC (red blood cell) ([1]; 10 mg/kg): 8.42 ± 0.32
- HCT (haematocrit) ([1]; 10 mg/kg): 37.15 ± 1.70
- RDW-CV (red cell volume distribution width) ([1]; 10 mg/kg): 16.22 ± 0.59
- MCV (mean cell volume) ([1]; 10 mg/kg): 43.80 ± 1.44
- MPV (meanplateletvolume) ([1]; 10 mg/kg): 6.63 ± 0.44
- RDW-SD ([1]; 10 mg/kg): 30.71 ± 1.70
- HGB (hemoglobin) ([1]; 10 mg/kg): 127.00 ± 5.10
- MCH (mean corpuscular hemoglobin) ([1]; 10 mg/kg): 15.09 ± 0.46
- MCHC (mean corpuscular hemoglobin concentration) ([1]; 20 mg/kg): 338.75 ± 3.58
- PDW (platelet distribution width) ([1]; 20 mg/kg): 14.86 ± 0.17
- PLT (platelet) ([1]; 20 mg/kg): 1190.00 ± 157.80
- WBC (white blood cell) ([1]; 20 mg/kg): 8.32 ± 3.90
- RBC (red blood cell) ([1]; 20 mg/kg): 9.07 ± 0.33
- HCT (haematocrit) ([1]; 20 mg/kg): 38.83 ± 1.69
- RDW-CV (red cell volume distribution width) ([1]; 20 mg/kg): 16.54 ± 0.79
- MCV (mean cell volume) ([1]; 20 mg/kg): 42.83 ± 1.54
- MPV (meanplateletvolume) ([1]; 20 mg/kg): 6.38 ± 0.23
- RDW-SD ([1]; 20 mg/kg): 30.13 ± 2.23
- HGB (hemoglobin) ([1]; 20 mg/kg): 131.50 ± 5.66
- MCH (mean corpuscular hemoglobin) ([1]; 20 mg/kg): 14.51 ± 0.46
- cumulative drug release [2]: < 20%
- logP at 24 h [4]: 3.2 ± 0.17
- solubility at 72 h ([5]; 50% (w/v) G2-β-CD solution in water): 12.7 mg/mL (≈ 54.8 mM)
- Frax solubility in G2-β-CD solution relative to water ([5]; 50% (w/v) G2-β-CD solution vs water): 160 times
SMILES: CC1=C2C(=O)O[C@@H](c3ccoc3)[C@]2(C)CCC1 [Frax, Fraxinellone]
- degradation in simulated GI fluids [3]: rather stable; also recorded: negligible degradation
